Converted amounts (≈) assume the structure as drawn.
Experiments:
synovial fibroblasts = assay: Synoviocyte proliferation (trypan blue dye exclusion); conditions: 24 hours
human keratinocytes = assay: Keratinocyte viable cell number (trypan blue exclusion); type: cell-based; conditions: 4 days
Experimental: Following incubation, cells were collected and counted by the trypan blue exclusion assay.

synoviocytes = assay: Proliferation assay (MTT); type: cell-based; conditions: 24-hour exposure
Experimental: On day one, 5-10×10^4 synoviocytes were plated per well (96-well plate). Column #1 was kept free of cells (blank). On day 2, the plate was flicked to discard the medium and 200 μl of medium containing various concentrations of drug was added. […] There was no drug added to columns #1 and #2 (blank and untreated control, respectively). The medium containing the drug was discarded and 200 μl of fresh complete medium was added. The cells were then left to grow for an additional 3 to 4 days. On day five, 20 μl of dimethylthiazol diphenyltetrazolium bromide salt (MTT) (5 mg/ml PBS) was added and allowed to incubate for 4 hours at 37° C. The medium was decanted and 200 μl of DMSO was added.
The data were expressed as the % of survival which was obtained by dividing the number of cells remaining after treatment by the number of cells in the untreated control column #2 (the number of cells was obtained from a standard done prior to the assay).

EOMA cells = assay: Endothelial cell apoptosis (DAPI staining); type: cell-based; conditions: 24 hours
Experimental: The cells were fixed with 3.7% formaldehyde in phosphate buffered saline for 20 minutes, stained with DAPI (4′-6-diaminido-2-phenylindole), 1 ug/ml, and examined with a 40×objective under epifluorescent optics. Apoptotic cells were evaluated by scoring cells for fragmented nuclei and condensed chromatin.

NF-κB = NF-κB activity (cell-based) reporter assay in NIH-3T3; parameters: species or system murine; conditions: 6-hour and 24-hour treatments
Experimental: IL-1 and TNF were both identified as being proinflammatory cytokines that activate the transcription of genes driven by a transcription factor named NF-κB also involved in inflammatory processes. The inflammatory effect of IL-1 and TNF can therefore be indirectly assessed by means of a reporter gene assay (NF-κB) responding to IL-1 and TNF stimulation.
On day one, 5×10^4 NIH-3T3 (murine fibroblast), stably transfected with a NF-κB reporter construct (Luciferase, Promega Corp.), were plated per well (24-well plate). Once confluent (on day 3-4), cells were starved by replacing the complete medium with 1 ml of serum-free medium. Following a 24-hour starvation, cells were treated with various concentrations of anti-microtubule agents 6 hours prior to the addition of IL-1 (20 ng/ml) and TNF (20 ng/ml). Cells were exposed to IL-1 and TNF for 1 hour and 16 hours and NF-κB activity measured 24 hours later. On day five, the medium was discarded and the cells were rinsed once with PBS. Cells were then extracted for 15 minutes with 250 μl of lysis buffer (Promega Corp., Wisconsin). NF-κB transcriptional activity was assessed by adding 25 μl of luciferase substrate to a tube containing 2.5 μl of cell extract. The tube was immediately inserted in a luminometer (Turner Designs) and light emission measured for 10 seconds. The luciferase data were then normalized for protein concentration.

neutrophils = assay: Superoxide anion generation by neutrophils; type: cell-based, human; conditions: 28 μM
Experimental: All experiments that studied neutrophil responses to crystals or zymosan in the presence of paclitaxel were performed using plasma opsonized CPPD or zymosan. Opsonization of crystals or zymosan was done with 50% heparinized plasma at a concentration of 75 mg of CPPD or 12 mg of zymosan per ml of 50% plasma Crystals or zymosan were incubated with plasma for 30 minutes at 37° C. and then washed in excess HBSS.
Neutrophil viability and purity was always greater than 90%.
Superoxide anion concentrations were measured using the superoxide dismutase inhibitable reduction of cytochrome C assay. Briefly, 25 mg of crystals or 0.5 mg of zymosan was placed in a 1.5 ml capped Eppendorf tube and warmed to 37° C. 0.5 ml of cells at 37° C. were added together with ferricytochrome C (final concentration 1.2 mg/ml) and the cells were activated by shaking the capped tubes. At appropriate times tubes were centrifuged at 10,000 g for 10 seconds and the supernatant collected for assay be measuring the absorbance of 550 nm. Control tubes were set up under the same conditions with the inclusion of superoxide dismutase at 600 units per ml.

subcutaneous tumors = assay: Subcutaneous tumors in mice treated with paste; type: in vivo; conditions: paclitaxel/gelatin/PCL paste
[1] = Paclitaxel solubility in permeation enhancers; type: physicochemical; conditions: 37° C.
Experimental: The following permeation enhancers were examined: Transcutol®, ethanol, propylene glycol, isopropyl myristate, oleic acid and Transcutol:isopropyl myristate (9:1 v:v). […] A sample of 0.5 ml of the fluid from each vial was centrifuged at 37° C. and 13000 rpm for 2 minutes. Aliquots (0.1 ml) of supernatant from the centrifuge tubes were transferred to volumetric flasks and diluted with methanol. Paclitaxel content was assessed by high pressure liquid chromatography (HPLC).

[2] = tested on: restenosis / intimal hyperplasia; assay: Rat carotid artery balloon injury model of restenosis, perivascular treatment; type: in vivo; conditions: paclitaxel-loaded (20%) polymers (EVA film or PCL paste), 2.5 mg perivascular; 14 and 28 days
Experimental: WISTAR rats weighing 250 to 300 g were anesthetized by the intramuscular injection of Innovar (0.33 ml/kg). Once sedated they were then placed under Halothane anesthesia After general anesthesia was established, fur over the neck region was shaved, the skin clamped and swabbed with betadine. A vertical incision was made over the left carotid artery and the external carotid artery exposed. Two ligatures were placed around the external carotid artery and a transverse arteriotomy was made. […] The endothelium was denuded by passing the inflated balloon up and down the carotid artery three times. The catheter was then removed and the ligature tied off on the left external carotid artery. […] The wound was then closed.

[3] = Solubility / complexation of paclitaxel with cyclodextrins; type: physicochemical
Experimental: The mobile phase was composed of a mixture of acetonitrile, methanol and water (58:5:37) at a flow rate of 1.0 ml/minute.

[4] = tested on: AP-1 transcriptional activity; assay: IL-1 stimulated AP-1 driven CAT reporter gene in chondrocytes; type: cell-based; conditions: 10^−7 to 10^−5 M
Text: The data noted with an asterisk (*) have significance compared with IL-1-induced CAT activity according to a t-test, P<0.05. The results shown are representative of three independent experiments.

skin inflammation = assay: Mouse ear skin inflammation (oxazolone delayed-type hypersensitivity, PMA)
Experimental: Briefly, mice were sensitized to oxazolone by topical application of the compound onto the skin. Five days later, mice were challenged with oxazolone by topical application onto the ear skin (left ear: oxazolone, right ear: vehicle alone), resulting in a cutaneous inflammatory, “delayed-type hypersensitivity” reaction. […] Epon-embedded, Giesma-stained, 1 μm tissue sections were evaluated for the presence of inflammatory cells, for the presence of tissue mast cells and their state of activation, and for the degree of epidermal hyperplasia.

Q: With `CC(=O)O[C@H]1C(=O)[C@@]2(C)[C@H]([C@H](OC(=O)c3ccccc3)[C@]3(O)C[C@H](OC(=O)[C@H](O)[C@@H](NC(=O)c4ccccc4)c4ccccc4)C(C)=C1C3(C)C)[C@]1(OC(C)=O)CO[C@@H]1C[C@@H]2O` [paclitaxel] as the molecule, how does the “toxicity to synovial fibroblasts” value (synovial fibroblasts; 10^−6 M and 10^−5 M) read?
A: toxic

Q: And the “inhibiting proliferation of the synoviocytes at concentrations as low as” value (synovial fibroblasts)?
A: 10^−7 M

Q: What about the cell viability (human keratinocytes; 10^−7 M or higher) of the same molecule?
A: significant drop in cell viability

Q: What about the cell viability (human keratinocytes; 10^−8 M) of the same molecule?
A: 87 % of untreated controls

Q: And the cell viability (human keratinocytes; 10^−9 M)?
A: greater than 100 % of untreated controls

Q: And the IC50 (synoviocytes)?
A: ~30 nM

Q: And the “concentrations inducing endothelial cell apoptosis” value (EOMA cells)?
A: greater than 10^−8 M

Q: And the “inhibitory effect on IL-1- and TNF-induced NF-κB activity” value (NF-κB)?
A: ~2 µM

Q: What about the “inhibition of superoxide anion production” value (neutrophils; opsonized zymosan) of the same molecule?
A: less dramatic than the inhibition of CPPD activation but was significant at all times

Q: And the superoxide anion production (neutrophils; plasma opsonized CPPD crystals)?
A: decrease in the amount of superoxide generated at all times

Q: What about the tumor mass (subcutaneous tumors) of the same molecule?
A: significantly reduced the tumor mass

Q: And the “Paclitaxel concentration at saturation, Average” value (“Paclitaxel concentration” below) ([1]; Ethanol)?
A: 68.91 mg/mL

Q: What about the “Paclitaxel concentration” value ([1]; Isopropyl myristate) of the same molecule?
A: 0.43 mg/mL

Q: And the “Paclitaxel concentration” value ([1]; Oleic acid)?
A: 0.31 mg/mL

Q: And the “Paclitaxel concentration” value ([1]; Propylene glycol)?
A: 21.56 mg/mL

Q: And the “Paclitaxel concentration” value ([1]; Transcutol)?
A: 346.9 mg/mL

Q: And the “Paclitaxel concentration” value ([1]; Transcutol, listed as Paclitaxel)?
A: 346.85 mg/mL

Q: And the “Paclitaxel concentration” value ([1]; Transcutol:isopropyl myristate (9:1 v:v))?
A: 353.9 mg/mL

Q: What about the “Paclitaxel concentration” value ([1]; Transcutol:isopropyl myristate (9:1 v:v), listed as Paclitaxel) of the same molecule?
A: 353.93 mg/mL

Q: What about the restenosis [2] of the same molecule?
A: completely prevented restenosis

Q: What about the solubility ([3]; 50% HPβ-CD in water, aqueous with cosolvent or surfactant or cyclodextrin, thermodynamic from solid, 50% solution of HPβ-CD in water, 37° C.) of the same molecule?
A: 3200 µg/mL (≈ 3.75 mM)

Q: And the “increase over the solubility of paclitaxel in water” value ([3]; 50% solution of HPβ-CD in water, 37° C.)?
A: ~2000 fold

Q: What about the apparent stability constant ([3]; HPβ-CD in the presence of 50% ethanol) of the same molecule?
A: 26.57 M⁻¹

Q: What about the “stability constant, first order complex” value ([3]; HPβ-CD, 37° C.) of the same molecule?
A: 7.2 M⁻¹

Q: What about the “stability constant lower than in the absence of ethanol” value ([3]; HPβ-CD, 50% ethanol) of the same molecule?
A: about 300 times

Q: And the “stability constant, first order complex” value ([3]; HPγ-CD, 37° C.)?
A: 5.8 M⁻¹

Q: And the “stability constant, first order complex” value ([3]; γ-CD, 37° C.)?
A: 3.1 M⁻¹

Q: And the “IL-1 induced AP-1 reporter gene CAT activity” value [4]?
A: reduced in chondrocytes by paclitaxel in a concentration dependent manner

Q: What about the skin irritation (skin inflammation; 1% paclitaxel formulation, 20 μl to each side of the ears daily for 8 days, normal or inflamed ear skin) of the same molecule?
A: no detection of skin irritation

Q: What about the “ear swelling and skin erythema induced by PMA” value (skin inflammation; topical 1% paclitaxel formulation) of the same molecule?
A: significantly inhibited ear swelling and skin erythema

Q: And the “ear swelling, delayed-type hypersensitivity reaction (oxazolone)” value (skin inflammation; topical 1% paclitaxel gel versus vehicle alone)?
A: significant decrease in ear swelling

From patent US6689803B2, “Compositions and methods for treating surgical adhesions” (Angiotech Pharmaceuticals, Inc., priority 1996, dated 2004)
